This test deals with T1, LRRK2 (endogenous, HiBit tagged) (Homo sapiens, UniProt Q5S007).
T1 construct: endogenous in cells; host or cells: HEK293 cells with HiBit knock-in at the endogenous LRRK2 locus, stably expressing firefly luciferase
Kind of test: Endogenous LRRK2 degradation assay, endogenous gene C-terminally HiBit-tagged in HEK293 cells (Nano-Glo Dual Luciferase). In kind it is cell-based. The procedure, abridged: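 LRRK2-HiBit quantified via Nano-Glo Dual Luciferase in HEK293 knock-in cells co-expressing firefly luciferase, after 24 h exposure to compound (1 μM final top, 1:3, 11 points). Values normalised to DMSO median per plate and curve-fitted; Alamar Blue viability run alongside.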

Setting [1] is: endogenous HiBit-tagged LRRK2 in HEK293 cells, 24 hours treatment, read-out: Endogenous WT DC50.
Where [2] appears, read: endogenous HiBit-tagged LRRK2 in HEK293 cells, 24 hours treatment, read-out: Endogenous WT Dmax.
Setting [3] is: endogenous HiBit-tagged LRRK2 in HEK293 cells, 24 hours treatment, read-out: **Endogenous WT Dmax (%).
Setting [4] is: endogenous HiBit-tagged LRRK2 in HEK293 cells, 24 hours treatment, read-out: *Endogenous WT DC50.
The mark [5] stands for this setting: endogenous HiBit-tagged LRRK2, HEK293 cells, 24 hours, read-out: **Endogenous WT Dmax (%).
[6] abbreviates: endogenous HiBit-tagged LRRK2, HEK293 cells, 24 hours, read-out: *Endogenous WT DC50.

Read-outs that look alike come from different tables or passages of the source. Where only a bound is given, the exact number is not on record here.

T1 sequence (Q5S007 whole entry): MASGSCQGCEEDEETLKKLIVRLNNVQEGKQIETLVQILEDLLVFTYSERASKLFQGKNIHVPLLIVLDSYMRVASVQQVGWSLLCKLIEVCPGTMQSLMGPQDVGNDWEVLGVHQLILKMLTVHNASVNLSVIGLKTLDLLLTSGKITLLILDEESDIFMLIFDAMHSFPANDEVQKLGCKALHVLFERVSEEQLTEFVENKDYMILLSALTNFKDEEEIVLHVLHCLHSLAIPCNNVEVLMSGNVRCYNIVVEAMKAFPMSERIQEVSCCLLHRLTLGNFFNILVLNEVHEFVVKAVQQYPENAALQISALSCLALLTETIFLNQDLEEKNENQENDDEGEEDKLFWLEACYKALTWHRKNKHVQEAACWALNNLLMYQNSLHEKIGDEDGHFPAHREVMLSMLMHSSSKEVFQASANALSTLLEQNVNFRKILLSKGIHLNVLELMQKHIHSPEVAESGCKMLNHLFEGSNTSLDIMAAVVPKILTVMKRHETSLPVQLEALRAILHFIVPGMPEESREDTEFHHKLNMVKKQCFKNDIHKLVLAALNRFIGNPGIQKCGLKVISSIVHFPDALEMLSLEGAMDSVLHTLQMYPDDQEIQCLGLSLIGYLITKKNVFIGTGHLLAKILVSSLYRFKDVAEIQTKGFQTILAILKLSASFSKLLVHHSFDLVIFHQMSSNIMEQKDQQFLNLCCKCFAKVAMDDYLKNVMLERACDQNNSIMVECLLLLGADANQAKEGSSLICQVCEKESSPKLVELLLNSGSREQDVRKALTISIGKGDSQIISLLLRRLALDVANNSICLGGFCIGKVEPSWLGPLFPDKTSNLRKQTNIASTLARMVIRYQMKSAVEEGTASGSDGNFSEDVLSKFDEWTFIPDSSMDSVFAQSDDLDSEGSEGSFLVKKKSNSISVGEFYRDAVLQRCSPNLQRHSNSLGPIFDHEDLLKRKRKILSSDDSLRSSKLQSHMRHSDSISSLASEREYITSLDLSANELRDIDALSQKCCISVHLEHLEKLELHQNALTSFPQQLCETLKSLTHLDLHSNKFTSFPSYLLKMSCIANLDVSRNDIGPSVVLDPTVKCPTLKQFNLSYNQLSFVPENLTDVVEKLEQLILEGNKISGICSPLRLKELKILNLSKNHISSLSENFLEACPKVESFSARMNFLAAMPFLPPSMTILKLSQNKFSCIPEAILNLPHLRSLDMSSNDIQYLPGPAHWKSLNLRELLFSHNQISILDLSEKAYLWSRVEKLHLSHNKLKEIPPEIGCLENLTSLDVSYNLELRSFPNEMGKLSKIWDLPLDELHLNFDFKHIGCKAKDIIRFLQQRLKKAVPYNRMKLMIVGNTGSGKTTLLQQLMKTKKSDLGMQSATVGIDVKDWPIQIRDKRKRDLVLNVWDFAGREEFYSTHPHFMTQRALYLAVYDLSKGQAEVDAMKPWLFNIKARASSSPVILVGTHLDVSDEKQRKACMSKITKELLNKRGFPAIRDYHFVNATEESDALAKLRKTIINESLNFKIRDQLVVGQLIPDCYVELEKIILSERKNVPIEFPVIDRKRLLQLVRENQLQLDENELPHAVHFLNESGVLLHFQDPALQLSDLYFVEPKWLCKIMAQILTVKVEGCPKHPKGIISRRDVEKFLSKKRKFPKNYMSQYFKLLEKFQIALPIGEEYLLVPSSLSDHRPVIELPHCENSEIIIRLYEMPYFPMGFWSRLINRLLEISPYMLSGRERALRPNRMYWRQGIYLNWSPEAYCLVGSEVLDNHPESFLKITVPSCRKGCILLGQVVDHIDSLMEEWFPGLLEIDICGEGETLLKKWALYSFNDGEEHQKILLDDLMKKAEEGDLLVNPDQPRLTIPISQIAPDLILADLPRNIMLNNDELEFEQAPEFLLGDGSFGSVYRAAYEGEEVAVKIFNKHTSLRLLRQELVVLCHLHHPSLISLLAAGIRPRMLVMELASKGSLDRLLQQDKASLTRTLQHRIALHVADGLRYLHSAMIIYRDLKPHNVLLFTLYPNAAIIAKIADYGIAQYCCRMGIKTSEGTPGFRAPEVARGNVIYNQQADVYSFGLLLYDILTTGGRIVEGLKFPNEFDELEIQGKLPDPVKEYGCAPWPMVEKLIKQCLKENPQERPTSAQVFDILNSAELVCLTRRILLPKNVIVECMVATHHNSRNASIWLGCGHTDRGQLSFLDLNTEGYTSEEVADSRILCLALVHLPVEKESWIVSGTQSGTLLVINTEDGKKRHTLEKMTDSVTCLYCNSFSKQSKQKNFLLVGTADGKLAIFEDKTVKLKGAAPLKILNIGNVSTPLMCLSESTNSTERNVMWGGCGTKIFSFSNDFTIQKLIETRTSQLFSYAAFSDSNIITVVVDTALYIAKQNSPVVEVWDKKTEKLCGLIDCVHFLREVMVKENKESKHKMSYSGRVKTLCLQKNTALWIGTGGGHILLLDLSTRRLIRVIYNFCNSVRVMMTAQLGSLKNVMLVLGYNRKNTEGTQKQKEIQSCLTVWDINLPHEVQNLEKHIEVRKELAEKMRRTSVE

For the molecule `CC1(Oc2ccc3[nH]nc(-c4cc(N5CCC(CN6CC7CC(C6)N7CC6CCN(c7ccc8c(c7F)CN(C7CCC(=O)NC7=O)C8=O)CC6)CC5)ncn4)c3c2)CC1` (stereo not shown) [Compound 225, 3-{4-fluoro-5-[4-({3-[(1-{6-[5-(1-methylcyclopropoxy)-1H-indazol-3-yl]pyrimidin-4-yl}piperidin-4-yl)methyl]-3,6-diazabicyclo[3.1.1]heptan-6-yl}methyl)piperidin-1-yl]-1-oxo-2,3-dihydro-1H-isoindol-2-yl}piperidine-2,6-dione], the half-maximal degradation concentration (DC50) under setting [1] was less than 10 nM. In addition, under setting [2], the Dmax was in the range of 50 to 70%. `COc1c(N2CCC(CN3[C@H](C)CN(CC4CCN(c5cc(-c6n[nH]c7ccc(OC8(C)CC8)cc67)ncn5)CC4)C[C@@H]3C)CC2)ccc2c1CN(C1CCC(=O)NC1=O)C2=O` (stereo partly drawn) [Compound 288, 3-[5-(4-{[(2R,6S)-2,6-dimethyl-4-[(1-{6-[5-(1-methylcyclopropoxy)-1H-indazol-3-yl]pyrimidin-4-yl}piperidin-4-yl)methyl]piperazin-1-yl]methyl}piperidin-1-yl)-4-methoxy-1-oxo-2,3-dihydro-1H-isoindol-2-yl]piperidine-2,6-dione]: under setting [3], the maximal degradation (Dmax) is not below 70%. For the same molecule, the 50% degradation concentration (DC50) under setting [4] is less than 10 nM. Regarding `C[C@H]1CN(c2cc(-c3n[nH]c4cc(F)c(OC5(C)CC5)cc34)ncn2)CCN1CC1(F)CCN(CC2CCN(c3ccc4c(c3F)CN(C3CCC(=O)NC3=O)C4=O)CC2)CC1` (stereo partly drawn) [Compound 192, 3-[4-fluoro-5-[4-[[4-fluoro-4-[[(2S)-4-[6-[6-fluoro-5-(1-methylcyclopropoxy)-1H-indazol-3-yl]pyrimidin-4-yl]-2-methyl-piperazin-1-yl]methyl]-1-piperidyl]methyl]-1-piperidyl]-1-oxo-isoindolin-2-yl]piperidine-2,6-dione], the Dmax under setting [5] is not below 70%. Also, the DC50 under setting [6] is less than 10 nM. With `CC1(Oc2ccc3[nH]nc(-c4cc(N5CCC(CN6CCN(C(C)(C)C7CCN(c8ccc9c(c8F)CN(C8CCC(=O)NC8=O)C9=O)CC7)CC6)CC5)ncn4)c3c2)CC1` (stereo not shown) [Compound 309, 3-{4-fluoro-5-[4-(2-{4-[(1-{6-[5-(1-methylcyclopropoxy)-1H-indazol-3-yl]pyrimidin-4-yl}piperidin-4-yl)methyl]piperazin-1-yl}propan-2-yl)piperidin-1-yl]-1-oxo-2,3-dihydro-1H-isoindol-2-yl}piperidine-2,6-dione], the greatest degradation seen (Dmax) under setting [3] is not below 70%. The DC50 under setting [4] was less than 10 nM. As for `COc1c(N2CCC(CN3CCN(CC4CCN(c5cc(-c6n[nH]c7cc(F)c(OC8(C)CC8)cc67)ncn5)CC4)CC3(C)C)CC2)ccc2c1CN(C1CCC(=O)NC1=O)C2=O` (stereo not shown) [Compound 349, 3-{5-[4-({4-[(1-{6-[6-fluoro-5-(1-methylcyclopropoxy)-1H-indazol-3-yl]pyrimidin-4-yl}piperidin-4-yl)methyl]-2,2-dimethylpiperazin-1-yl}methyl)piperidin-1-yl]-4-methoxy-1-oxo-2,3-dihydro-1H-isoindol-2-yl}piperidine-2,6-dione], under setting [4], the 50% degradation concentration (DC50) is less than 10 nM. For the molecule `CC1(Oc2cc3c(-c4cc(N5CCC(CN6CCN(CC7CCN(c8cc9c(cc8F)C(=O)N(C8CCC(=O)NC8=O)C9)CC7)CC6)CC5)ncn4)n[nH]c3cn2)CC1` (stereo not shown) [Compound 191, 3-[6-fluoro-5-[4-[[4-[[1-[6-[5-(1-methylcyclopropoxy)-1H-pyrazolo[3,4-c]pyridin-3-yl]pyrimidin-4-yl]-4-piperidyl]methyl]piperazin-1-yl]methyl]-1-piperidyl]-1-oxo-isoindolin-2-yl]piperidine-2,6-dione], the maximal degradation (Dmax) under setting [5] is not below 70%. The DC50 under setting [6] was less than 10 nM. Turning to `CC1(Oc2cc3c(-c4cc(N5CCC(CN6CCN(CC7(F)CCN(c8ccc9c(c8F)CN(C8CCC(=O)NC8=O)C9=O)CC7)CC6)CC5)ncn4)[nH]nc3cc2F)CC1` (stereo not shown) [Compound 229, 3-{4-fluoro-5-[4-fluoro-4-({4-[(1-{6-[6-fluoro-5-(1-methylcyclopropoxy)-2H-indazol-3-yl]pyrimidin-4-yl}piperidin-4-yl)methyl]piperazin-1-yl}methyl)piperidin-1-yl]-1-oxo-2,3-dihydro-1H-isoindol-2-yl}piperidine-2,6-dione], the half-maximal degradation concentration (DC50) under setting [1] is less than 10 nM. For the same molecule, under setting [2], the maximal degradation (Dmax) is 50 to 70%. With `COc1c(N2CCC(CN3CCN(CC4CCN(c5cc(-c6n[nH]c7cnc(OC8(C)CC8)cc67)ncn5)CC4)CC3(C)C)CC2)ccc2c1CN(C1CCC(=O)NC1=O)C2=O` (stereo not shown) [Compound 277, 3-{5-[4-({2,2-dimethyl-4-[(1-{6-[5-(1-methylcyclopropoxy)-1H-pyrazolo[3,4-c]pyridin-3-yl]pyrimidin-4-yl}piperidin-4-yl)methyl]piperazin-1-yl}methyl)piperidin-1-yl]-4-methoxy-1-oxo-2,3-dihydro-1H-isoindol-2-yl}piperidine-2,6-dione], the Dmax under setting [3] lay within 50 to 70%. The DC50 under setting [4] is less than 10 nM.

`CC1(Oc2ccc3n[nH]c(-c4cc(N5CCC(O[C@H]6C[C@H](N7CCC(c8ccc9c(c8F)CN(C8CCC(=O)NC8=O)C9=O)CC7)C6)CC5)ncn4)c3c2)CC1` (stereo partly shown) [Compound 290, 3-(4-fluoro-1-oxo-5-{1-[(1r,3r)-3-[(1-{6-[5-(1-methylcyclopropoxy)-2H-indazol-3-yl]pyrimidin-4-yl}piperidin-4-yl)oxy]cyclobutyl]piperidin-4-yl}-2,3-dihydro-1H-isoindol-2-yl)piperidine-2,6-dione]: the Dmax under setting [3] is not below 70%. Under setting [4], the DC50 was less than 10 nM. In the case of `CC1(Oc2cc3c(-c4cc(N5CCN(CC6(F)CCN(CC7CCN(c8ccc9c(c8F)CN(C8CCC(=O)NC8=O)C9=O)CC7)CC6)CC5)ncn4)n[nH]c3cc2F)CC1` (stereo not shown) [Compound 189, 3-[4-fluoro-5-[4-[[4-fluoro-4-[[4-[6-[6-fluoro-5-(1-methylcyclopropoxy)-1H-indazol-3-yl]pyrimidin-4-yl]piperazin-1-yl]methyl]-1-piperidyl]methyl]-1-piperidyl]-1-oxo-isoindolin-2-yl]piperidine-2,6-dione], under setting [5], the maximal degradation (Dmax) is not below 70%. Under setting [6], the DC50 is less than 10 nM. On to `COc1c(N2CCC(CN3CCN(CC4CCN(c5cc(-c6n[nH]c7ccc(OC8(C)CC8)cc67)ncn5)CC4)C(C)(C)C3)CC2)ccc2c1CN(C1CCC(=O)NC1=O)C2=O` (stereo not shown) [Compound 251, 3-{5-[4-({3,3-dimethyl-4-[(1-{6-[5-(1-methylcyclopropoxy)-1H-indazol-3-yl]pyrimidin-4-yl}piperidin-4-yl)methyl]piperazin-1-yl}methyl)piperidin-1-yl]-4-methoxy-1-oxo-2,3-dihydro-1H-isoindol-2-yl}piperidine-2,6-dione], for which the DC50 under setting [1] is less than 10 nM. Also, under setting [2], the Dmax was in the range of 50 to 70%.

Consider `COc1c(N2CCC(CN3CCN(CC4CCN(c5cc(-c6n[nH]c7cnc(OC8(C)CC8)cc67)ncn5)CC4)C[C@@H]3C)CC2)ccc2c1CN(C1CCC(=O)NC1=O)C2=O` (stereo partly drawn) [Compound 271, 3-[4-methoxy-5-(4-{[(2S)-2-methyl-4-[(1-{6-[5-(1-methylcyclopropoxy)-1H-pyrazolo[3,4-c]pyridin-3-yl]pyrimidin-4-yl}piperidin-4-yl)methyl]piperazin-1-yl]methyl}piperidin-1-yl)-1-oxo-2,3-dihydro-1H-isoindol-2-yl]piperidine-2,6-dione], for which the Dmax under setting [3] was 50 to 70%. Moreover, the 50% degradation concentration (DC50) under setting [4] is less than 10 nM. In the case of `CC1(Oc2ccc3[nH]nc(-c4cc(N5CCC(CN6CCN(CC7CCN(c8ccc9c(c8F)CN(C8CCC(=O)NC8=O)C9=O)CC7)C(C)(C)C6)CC5)ncn4)c3c2)CC1` (stereo not shown) [Compound 236, 3-[5-[4-[[2,2-dimethyl-4-[[1-[6-[5-(1-methylcyclopropoxy)-1H-indazol-3-yl]pyrimidin-4-yl]-4-piperidyl]methyl]piperazin-1-yl]methyl]-1-piperidyl]-4-fluoro-1-oxo-isoindolin-2-yl]piperidine-2,6-dione], the DC50 under setting [1] is less than 10 nM. Moreover, under setting [2], the Dmax was in the range of 50 to 70%.

On to `COc1c(N2CCC(CN3CCN(CC4CCN(c5cc(-c6n[nH]c7cnc(OC8(C)CC8)cc67)ncn5)CC4)C(C)(C)C3)CC2)ccc2c1CN(C1CCC(=O)NC1=O)C2=O` (stereo not shown) [Compound 250, 3-{5-[4-({3,3-dimethyl-4-[(1-{6-[5-(1-methylcyclopropoxy)-1H-pyrazolo[3,4-c]pyridin-3-yl]pyrimidin-4-yl}piperidin-4-yl)methyl]piperazin-1-yl}methyl)piperidin-1-yl]-4-methoxy-1-oxo-2,3-dihydro-1H-isoindol-2-yl}piperidine-2,6-dione], for which the DC50 under setting [1] was less than 10 nM. Further, the Dmax under setting [2] lay in the range of 50 to 70%. On to `Cc1cc(-c2n[nH]c3ccc(OC4(C)CC4)cc23)cc(N2CCN(C[C@H]3CC[C@H](OC4CCN(c5ccc6c(c5F)CN(C5CCC(=O)NC5=O)C6=O)CC4)CC3)CC2)n1` (stereo partly shown) [Compound 379, 3-[4-fluoro-1-oxo-5-(4-{[(1r,4r)-4-[(4-{6-methyl-4-[5-(1-methylcyclopropoxy)-1H-indazol-3-yl]pyridin-2-yl}piperazin-1-yl)methyl]cyclohexyl]oxy}piperidin-1-yl)-2,3-dihydro-1H-isoindol-2-yl]piperidine-2,6-dione], for which, under setting [1], the 50% degradation concentration (DC50) is less than 10 nM. Also, under setting [2], the greatest degradation seen (Dmax) lay within 50 to 70%. Take `CC1(Oc2ccc3n[nH]c(-c4cc(N5CCC(CN6CCN(CC7CCN(c8ccc(F)c9c8CN(C8CCC(=O)NC8=O)C9=O)CC7)CC6)CC5)ncn4)c3c2)CC1` (stereo not shown) [Compound 214, 3-[7-fluoro-4-[4-[[4-[[1-[6-[5-(1-methylcyclopropoxy)-2H-indazol-3-yl]pyrimidin-4-yl]-4-piperidyl]methyl]piperazin-1-yl]methyl]-1-piperidyl]-1-oxo-isoindolin-2-yl]piperidine-2,6-dione]: under setting [1], the DC50 was less than 10 nM. The greatest degradation seen (Dmax) under setting [2] was not below 70%.

For the origin of these results see patent US12559506B2, “Indazole based compounds and associated methods of use” (Arvinas Operations, Inc., priority 2021, dated 2026).
